Assay results published in PubChem BioAssay (NCI).
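Briefly, cells in 96-well plates were exposed to five compound concentrations for 48 h, and endpoints were estimated by linear interpolation. Here, GI50 denotes the concentration required for 50% inhibition of growth. Definition used: TGI = concentration required for complete inhibition of growth.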

Assays:
Assay in all cases: DTP human tumour cell line panel, 48 h
HOP-62 NSCLC = tested on: HOP-62 NSCLC
PC-3 prostate = tested on: PC-3 prostate
LOX IMVI melanoma = tested on: LOX IMVI melanoma
HCC-2998 colon = tested on: HCC-2998 colon
EKVX NSCLC = tested on: EKVX NSCLC
KM12 colon = tested on: KM12 colon
SNB-19 CNS = tested on: SNB-19 CNS
SK-MEL-2 melanoma = tested on: SK-MEL-2 melanoma
OVCAR-4 ovarian = tested on: OVCAR-4 ovarian
NCI-H522 lung = tested on: NCI-H522 lung

Cn1cc(-c2nonc2-c2cn(C)c3ccccc23)c2ccccc21
GI50 (HOP-62 NSCLC): 1250 nM | TGI (HOP-62 NSCLC): > 72.7 µM | GI50 (PC-3 prostate): 1420 nM | TGI (PC-3 prostate): > 100 µM | GI50 (LOX IMVI melanoma): 1240 nM | TGI (LOX IMVI melanoma): > 100 µM | GI50 (HCC-2998 colon): 3070 nM | TGI (HCC-2998 colon): > 100 µM | GI50 (EKVX NSCLC): 1700 nM | TGI (EKVX NSCLC): > 100 µM | GI50 (KM12 colon): 661 nM | TGI (KM12 colon): > 100 µM | GI50 (SNB-19 CNS): 910 nM | TGI (SNB-19 CNS): > 100 µM | GI50 (SK-MEL-2 melanoma): 1220 nM | TGI (SK-MEL-2 melanoma): > 100 µM | GI50 (OVCAR-4 ovarian): 2740 nM | TGI (OVCAR-4 ovarian): > 100 µM | GI50 (NCI-H522 lung): 402 nM | TGI (NCI-H522 lung): > 100 µM

COc1ccc(/C=N/NC(=O)Cn2c(-c3ccc(S(C)(=O)=O)cc3)nc3cc(Cl)ccc32)cc1
GI50 (HOP-62 NSCLC): 1420 nM | TGI (HOP-62 NSCLC): > 50 µM | GI50 (PC-3 prostate): 674 nM | TGI (PC-3 prostate): > 50 µM | GI50 (LOX IMVI melanoma): 1400 nM | TGI (LOX IMVI melanoma): > 50 µM | GI50 (HCC-2998 colon): 1850 nM | TGI (HCC-2998 colon): 12.5 µM | GI50 (EKVX NSCLC): 2510 nM | TGI (EKVX NSCLC): > 50 µM | GI50 (KM12 colon): 979 nM | TGI (KM12 colon): > 50 µM | GI50 (SNB-19 CNS): 1530 nM | TGI (SNB-19 CNS): > 50 µM | GI50 (SK-MEL-2 melanoma): 1130 nM | TGI (SK-MEL-2 melanoma): > 50 µM | GI50 (OVCAR-4 ovarian): 2530 nM | TGI (OVCAR-4 ovarian): > 50 µM | GI50 (NCI-H522 lung): 291 nM | TGI (NCI-H522 lung): 1.7 µM

COc1ccc2c(c1)OC1=C(C(=O)OC1)C2c1cc(OC)c2c(c1)OCO2 (centres undefined)
GI50 (HOP-62 NSCLC): 41.1 nM | TGI (HOP-62 NSCLC): > 100 µM | GI50 (PC-3 prostate): 40.3 nM | TGI (PC-3 prostate): > 100 µM | GI50 (LOX IMVI melanoma): 68.3 nM | TGI (LOX IMVI melanoma): > 100 µM | GI50 (HCC-2998 colon): 42.4 nM | TGI (HCC-2998 colon): > 35.1 µM | TGI (EKVX NSCLC): > 100 µM | GI50 (KM12 colon): 30.4 nM | TGI (KM12 colon): 0.416 µM | GI50 (SNB-19 CNS): 53.1 nM | TGI (SNB-19 CNS): > 100 µM | GI50 (SK-MEL-2 melanoma): 40.5 nM | TGI (SK-MEL-2 melanoma): > 100 µM | GI50 (OVCAR-4 ovarian): 59.7 nM | TGI (OVCAR-4 ovarian): > 100 µM | GI50 (NCI-H522 lung): < 11.1 nM | TGI (NCI-H522 lung): 0.0472 µM

COc1ccc(OC)c(Cn2cc3c(c2)-c2oncc2CC3)c1
GI50 (HOP-62 NSCLC): 4080 nM | TGI (HOP-62 NSCLC): > 100 µM | GI50 (PC-3 prostate): 5890 nM | TGI (PC-3 prostate): > 100 µM | GI50 (LOX IMVI melanoma): 4060 nM | TGI (LOX IMVI melanoma): > 100 µM | GI50 (HCC-2998 colon): 4720 nM | TGI (HCC-2998 colon): 38.1 µM | GI50 (EKVX NSCLC): 4220 nM | TGI (EKVX NSCLC): > 100 µM | GI50 (KM12 colon): 3020 nM | TGI (KM12 colon): 39.4 µM | GI50 (SNB-19 CNS): 4740 nM | TGI (SNB-19 CNS): > 100 µM | GI50 (SK-MEL-2 melanoma): 2030 nM | TGI (SK-MEL-2 melanoma): 7.62 µM | GI50 (OVCAR-4 ovarian): 5740 nM | TGI (OVCAR-4 ovarian): > 100 µM | GI50 (NCI-H522 lung): 1630 nM | TGI (NCI-H522 lung): 4.89 µM

CC(C)(C)c1ccc(C(=O)Nc2sc3c(c2C(N)=O)CCC(=O)C3)cc1
GI50 (HOP-62 NSCLC): 2380 nM | TGI (HOP-62 NSCLC): 6.62 µM | GI50 (PC-3 prostate): 188 nM | TGI (PC-3 prostate): 1.48 µM | GI50 (LOX IMVI melanoma): 398 nM | TGI (LOX IMVI melanoma): 1.51 µM | GI50 (HCC-2998 colon): 1970 nM | TGI (HCC-2998 colon): 4.22 µM | GI50 (EKVX NSCLC): 1970 nM | TGI (EKVX NSCLC): 4.82 µM | GI50 (KM12 colon): 550 nM | TGI (KM12 colon): 2.34 µM | GI50 (SNB-19 CNS): 457 nM | TGI (SNB-19 CNS): 1.94 µM | GI50 (SK-MEL-2 melanoma): 1900 nM | TGI (SK-MEL-2 melanoma): 4.73 µM | GI50 (OVCAR-4 ovarian): 354 nM | TGI (OVCAR-4 ovarian): 1.27 µM | GI50 (NCI-H522 lung): 318 nM | TGI (NCI-H522 lung): 1.91 µM

CN(CC(N)=O)C(=O)N(CCCl)N=O
TGI (HOP-62 NSCLC): > 100 µM | TGI (PC-3 prostate): > 100 µM | TGI (LOX IMVI melanoma): > 100 µM | TGI (HCC-2998 colon): > 100 µM | TGI (EKVX NSCLC): > 100 µM | TGI (KM12 colon): > 100 µM | TGI (SNB-19 CNS): > 100 µM | TGI (SK-MEL-2 melanoma): > 100 µM | TGI (OVCAR-4 ovarian): > 100 µM | TGI (NCI-H522 lung): > 100 µM

CC1(C)CCC[C@]2(C)[C@@H](C=O)C(C=O)=CC[C@@H]12
TGI (HOP-62 NSCLC): > 100 µM | TGI (PC-3 prostate): > 100 µM | TGI (LOX IMVI melanoma): 42.2 µM | TGI (HCC-2998 colon): 32.7 µM | TGI (EKVX NSCLC): > 100 µM | TGI (KM12 colon): 31.5 µM | TGI (SNB-19 CNS): 77.4 µM | TGI (SK-MEL-2 melanoma): 39.7 µM | TGI (OVCAR-4 ovarian): 44.9 µM | TGI (NCI-H522 lung): 37.4 µM

O=[N+]([O-])c1cc(S(=O)(=O)Oc2ccccc2)ccc1Cl
GI50 (HOP-62 NSCLC): 6060 nM | TGI (HOP-62 NSCLC): 19.2 µM | GI50 (PC-3 prostate): 2050 nM | TGI (PC-3 prostate): 4.45 µM | GI50 (LOX IMVI melanoma): 1780 nM | TGI (LOX IMVI melanoma): 3.69 µM | GI50 (HCC-2998 colon): 1740 nM | TGI (HCC-2998 colon): 3.33 µM | GI50 (EKVX NSCLC): 1990 nM | TGI (EKVX NSCLC): 4.07 µM | GI50 (KM12 colon): 1470 nM | TGI (KM12 colon): 2.89 µM | GI50 (SNB-19 CNS): 3110 nM | TGI (SNB-19 CNS): 11.1 µM | GI50 (SK-MEL-2 melanoma): 10700 nM | TGI (SK-MEL-2 melanoma): 26.1 µM | GI50 (OVCAR-4 ovarian): 1750 nM | TGI (OVCAR-4 ovarian): 3.2 µM | GI50 (NCI-H522 lung): 1990 nM | TGI (NCI-H522 lung): 3.62 µM

COc1ccc(C2[C@@H](Cl)C(=O)N2c2cc(OC)c(OC)c(OC)c2)cc1Cl (some centres undefined)
GI50 (HOP-62 NSCLC): 180 nM | TGI (HOP-62 NSCLC): > 100 µM | GI50 (PC-3 prostate): 64.2 nM | TGI (PC-3 prostate): > 100 µM | GI50 (LOX IMVI melanoma): 163 nM | TGI (LOX IMVI melanoma): 20.8 µM | GI50 (HCC-2998 colon): 410 nM | TGI (HCC-2998 colon): 17.6 µM | GI50 (EKVX NSCLC): 434 nM | TGI (EKVX NSCLC): > 100 µM | GI50 (KM12 colon): 178 nM | TGI (KM12 colon): 18.5 µM | GI50 (SNB-19 CNS): 293 nM | TGI (SNB-19 CNS): > 100 µM | GI50 (SK-MEL-2 melanoma): 177 nM | TGI (SK-MEL-2 melanoma): 22.5 µM | GI50 (OVCAR-4 ovarian): 837 nM | TGI (OVCAR-4 ovarian): > 100 µM | GI50 (NCI-H522 lung): 35.3 nM | TGI (NCI-H522 lung): 0.296 µM

CC(C)(C)CN1CCn2c(nc3c(N)nccc32)S1
GI50 (HOP-62 NSCLC): 17000 nM | TGI (HOP-62 NSCLC): > 100 µM | GI50 (PC-3 prostate): 11000 nM | TGI (PC-3 prostate): > 100 µM | GI50 (LOX IMVI melanoma): 9500 nM | TGI (LOX IMVI melanoma): 23.5 µM | GI50 (HCC-2998 colon): 13700 nM | TGI (HCC-2998 colon): 34.8 µM | GI50 (EKVX NSCLC): 30900 nM | TGI (EKVX NSCLC): > 100 µM | GI50 (KM12 colon): 4230 nM | TGI (KM12 colon): 17.1 µM | GI50 (SNB-19 CNS): 32800 nM | TGI (SNB-19 CNS): > 100 µM | GI50 (SK-MEL-2 melanoma): 69300 nM | TGI (SK-MEL-2 melanoma): > 100 µM | GI50 (OVCAR-4 ovarian): 13600 nM | TGI (OVCAR-4 ovarian): 40.1 µM | GI50 (NCI-H522 lung): 13500 nM | TGI (NCI-H522 lung): 31.6 µM
